# Reference: patent publication US11111243B2, “Azaindole compounds as histone methyltransferase inhibitors” (GLOBAL BLOOD THERAPEUTICS, INC., priority 2017, dated 2021)
# Where a name gives a salt, the structure may show the parent alone.
# Target: T1, G9a (Homo sapiens, UniProt Q96KQ7)
# T1 sequence (Q96KQ7 1-1210): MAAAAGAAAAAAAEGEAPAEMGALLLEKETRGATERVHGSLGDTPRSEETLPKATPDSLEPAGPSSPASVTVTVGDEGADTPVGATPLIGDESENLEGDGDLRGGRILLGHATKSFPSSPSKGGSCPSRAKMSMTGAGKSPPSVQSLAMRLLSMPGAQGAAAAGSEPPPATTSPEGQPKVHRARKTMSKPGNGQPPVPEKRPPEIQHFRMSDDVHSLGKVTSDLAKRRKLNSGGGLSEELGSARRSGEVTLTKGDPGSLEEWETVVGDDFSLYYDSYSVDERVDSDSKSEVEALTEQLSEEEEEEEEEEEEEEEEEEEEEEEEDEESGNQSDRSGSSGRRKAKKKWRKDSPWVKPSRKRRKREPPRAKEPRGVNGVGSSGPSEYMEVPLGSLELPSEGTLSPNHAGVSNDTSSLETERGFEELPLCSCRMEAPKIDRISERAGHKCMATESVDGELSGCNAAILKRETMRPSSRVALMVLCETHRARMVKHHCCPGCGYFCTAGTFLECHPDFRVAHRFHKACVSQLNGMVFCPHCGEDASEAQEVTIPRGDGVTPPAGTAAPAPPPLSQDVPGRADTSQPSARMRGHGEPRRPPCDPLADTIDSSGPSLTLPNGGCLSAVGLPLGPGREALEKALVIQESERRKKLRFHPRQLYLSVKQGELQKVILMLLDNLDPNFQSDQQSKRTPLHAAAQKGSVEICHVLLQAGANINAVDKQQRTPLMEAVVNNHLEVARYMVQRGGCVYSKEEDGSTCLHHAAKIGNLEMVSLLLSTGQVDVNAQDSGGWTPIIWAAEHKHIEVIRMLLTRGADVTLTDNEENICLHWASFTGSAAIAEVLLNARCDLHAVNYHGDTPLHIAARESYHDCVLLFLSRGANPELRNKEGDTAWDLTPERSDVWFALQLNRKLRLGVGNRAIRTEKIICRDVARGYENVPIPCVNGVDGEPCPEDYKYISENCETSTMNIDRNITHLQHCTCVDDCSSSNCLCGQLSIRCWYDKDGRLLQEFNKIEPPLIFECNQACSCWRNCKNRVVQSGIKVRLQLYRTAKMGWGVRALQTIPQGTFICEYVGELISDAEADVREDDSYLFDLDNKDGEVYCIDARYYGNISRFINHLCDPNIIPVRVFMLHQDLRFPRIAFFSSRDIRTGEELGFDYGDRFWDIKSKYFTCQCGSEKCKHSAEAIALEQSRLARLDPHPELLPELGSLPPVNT
# Assay: G9a AlphaLISA enzymatic activity assay
# Format: biochemical
# Conditions: 0.15 nM G9a, 10 uM S-adenosyl-methionine, 100 nM biotinylated histone 3 peptide (1-21), 1 h room temperature
# Source text: The G9a AlphaLISA assay was used to detect the methyl modifications of a biotinylated histone H3 peptide by the compounds. These modifications are done by the histone methyl transferase activity of the G9a enzyme. The assay consists of reading a chemiluminescent signal at 615 nm; this signal is generated by a laser excitation at 680 nm that transfers a reactive singlet oxygen between the donor beads and acceptor beads. Donor beads are streptavidin conjugated and bind to the biotin on the peptide. Acceptor beads are conjugated with an antibody that recognizes the specific G9a methyl mark on the peptide. If there is a methyl mark on the peptide, the acceptor beads will bind to the peptide. Upon binding, the acceptor beads will be in close proximity (<200 nm) of the donor beads and when the donor beads are excited, the transfer of the oxygen can occur and a strong signal will be generated. If there is no methyl mark, the interaction between beads will not occur and signal will be at background levels.
# For the assay, the following buffer was used to set up reactions: 50 mM Tris-HCl pH9, 50 mM NaCl, 0.01% Tween-20 and 1 mM DTT (added fresh prior to starting the reactions). The assay is set up by adding a final concentration of 0.15 nM G9a, 10 uM S-adenosyl-methionine and, 100 nM biotinylated histone 3 peptide (1-21). The reaction is incubated at room temperature for 1 h, and subsequently quenched by the addition of the acceptor beads (anti-H3k9me2 AlphaLISA acceptor beads, PerkinElmer #AL117) at a final concentration of 20 ug/mL. The acceptor beads are incubated for 1 h. After 1 h, the donor beads are added at a final concentration of 20 ug/mL (Alpha Streptavidin donor beads, PerkinElmer #6760002). Donor beads are incubated for 0.5 h. Both donor and acceptor beads are resuspended in AlphaLISA 5× Epigenetics Buffer 1 Kit (PerkinElmer #AL008) prior to addition to the reaction. All manipulations and incubations with the donor and acceptor beads are done in subdued light. Signal is detected in an EnVision plate reader in Alpha mode (See ACS Med Chem Lett. 2014 Jan. 2; 5(2):205-9)
# Percent inhibition was calculated for each compound dilution and the concentration that produced 50% inhibition was calculated. This value is presented as the IC50.
row,SMILES,IC50 [nM]
1,"COc1cc2c(cc1OCCCN1CCCC1)[nH]c1ccnc(OC3CCOCC3)c12 [Compound 73, 1-(3-{[8-methoxy-1-(oxan-4-yloxy)-5H-pyrido[4,3-b]indol-7-yl]oxy}propyl)pyrrolidine trifluoroacetate]",960
2,"COc1cc2c(cc1OCCCN1CCCC1)[nH]c1ccnc(-n3cccn3)c12 [Compound 77, 1-[8-methoxy-7-[3-(pyrrolidin-1-yl)propoxy]-5H-pyrido[4,3-b]indol-1-yl]-1H-pyrazole trifluoroacetate]",2500
3,"COc1cc2c(cc1OCCCN1CCCC1)[nH]c1cc(O)ncc12 [Compound 80, 8-methoxy-7-(3-(pyrrolidin-1-yl)propoxy)-5H-pyrido[4,3-b]indol-3-ol formate]",> 10000
4,"COc1cc2c(cc1OCCCN1CCCC1)[nH]c1ccnc(-c3cnc[nH]3)c12 [Compound 84, 1-(1H-imidazol-5-yl)-8-methoxy-7-(3-(pyrrolidin-1-yl)propoxy)-5H-pyrido[4,3-b]indole trifluoroacetate]",17
5,"CCN(CC)c1nccc2[nH]c3cc(OCCCN4CCCC4)c(OC)cc3c12 [Compound 85, N,N-diethyl-8-methoxy-7-[3-(pyrrolidin-1-yl)propoxy]-5H-pyrido[4,3-b]indol-1-amine bis formate]",17
6,"COc1cc2c(cc1OCCCN1CCCC1)[nH]c1c(Cl)cnc(N3CCCC3)c12 [Compound 86, 1-{4-chloro-8-methoxy-7-[3-(pyrrolidin-1-yl)propoxy]-5H-pyrido[4,3-b]indol-1-yl}pyrrolidine hydrochloride]",180
7,"COc1cc2c(cc1OCCCN(C)C)[nH]c1ccncc12 [Compound 88, [3-({8-methoxy-5H-pyrido[4,3-b]indol-7-yl}oxy)propyl]dimethylamine hydrochloride]",12
8,"COc1cc2c(cc1OCCCN1CCCC1)[nH]c1c(C)cnc(N3CCCC3)c12 [Compound 89, 1-{8-methoxy-4-methyl-7-[3-(pyrrolidin-1-yl)propoxy]-5H-pyrido[4,3-b]indol-1-yl}pyrrolidine hydrochloride]",12
9,"COc1cc2c(cc1OCCCN(C)C)[nH]c1ccnc(C)c12 [Compound 90, [3-({8-methoxy-1-methyl-5H-pyrido[4,3-b]indol-7-yl}oxy)propyl]dimethylamine hydrochloride]",7.1
10,"CCc1nccc2[nH]c3cc(OCCCN(C)C)c(OC)cc3c12 [Compound 91, [3-({1-ethyl-8-methoxy-5H-pyrido[4,3-b]indol-7-yl}oxy)propyl]dimethylamine hydrochloride]",6.7
11,"COc1cc2c(cc1OCCCN(C)C)[nH]c1ccnc(N3CCCC3)c12 [Compound 92, (3-{[8-methoxy-1-(pyrrolidin-1-yl)-5H-pyrido[4,3-b]indol-7-yl]oxy}propyl)dimethylamine hydrochloride]",51
12,"COCCOc1nccc2[nH]c3cc(OCCCN4CCCC4)c(OC)cc3c12 [Compound 96, 1-(3-{[8-methoxy-1-(2-methoxyethoxy)-5H-pyrido[4,3-b]indol-7-yl]oxy}propyl)pyrrolidine trifluoroacetate]",3300
13,"COc1cc2c(cc1OCCCN1CCCC1)[nH]c1cc(C)ncc12 [Compound 99, 1-[3-({8-methoxy-3-methyl-5H-pyrido[4,3-b]indol-7-yl}oxy)propyl]pyrrolidine hydrochloride]",16
14,"COc1cc2c(cc1OCCCN1CCCC1)[nH]c1ccnc(OC)c12 [Compound 100, 1-[3-({1,8-dimethoxy-5H-pyrido[4,3-b]indol-7-yl}oxy)propyl]pyrrolidine hydrochloride]",380

# The remaining molecules from weak to strong by IC50, led by results:
row,IC50 [nM],SMILES
1,2800,"COc1cc2c(cc1OCCCN1CC3CC(C3)C1)[nH]c1ccncc12 [Compound 98, 3-[3-({8-methoxy-5H-pyrido[4,3-b]indol-7-yl}oxy)propyl]-3-azabicyclo[3.1.1]heptane hydrochloride]"
2,1000,"COc1cc2c(cc1OCCCN1CCCC1)[nH]c1ccnc(OC(C)C)c12 [Compound 75, 1-(3-{[8-methoxy-1-(propan-2-yloxy)-5H-pyrido[4,3-b]indol-7-yl]oxy}propyl)pyrrolidine trifluoroacetate]"
3,960,"COc1cc2c(cc1OCCCN1CCCC1)[nH]c1ccnc(-n3ccnc3)c12 [Compound 76, 1-{8-methoxy-7-[3-(pyrrolidin-1-yl)propoxy]-5H-pyrido[4,3-b]indol-1-yl}-1H-imidazole trifluoroacetate]"
4,560,"COc1cc2c(cc1OCCCN(C)C)[nH]c1ccnc(SC)c12 [Compound 95, (3-{[8-methoxy-1-(methylsulfanyl)-5H-pyrido[4,3-b]indol-7-yl]oxy}propyl)dimethylamine hydrochloride]"
5,260,"COc1cc2c(cc1OCCCN1CCCC1)[nH]c1ccnc(-c3cncs3)c12 [Compound 78, 5-{8-methoxy-7-[3-(pyrrolidin-1-yl)propoxy]-5H-pyrido[4,3-b]indol-1-yl}-1,3-thiazole trifluoroacetate]"
6,240,"COc1cc2c(cc1OCC1CCCNC1)[nH]c1ccncc12 (stereo not drawn) [Compound 87, 3-[({8-methoxy-5H-pyrido[4,3-b]indol-7-yl}oxy)methyl]piperidine hydrochloride]"
7,140,"COc1cc2c(cc1OCCCN1CCCC1)[nH]c1cc(CO)ncc12 [Compound 79, {8-methoxy-7-[3-(pyrrolidin-1-yl)propoxy]-5H-pyrido[4,3-b]indol-3-yl}methanol trifluoroacetate]"
8,68,"COc1cc2c(cc1OCCCN1CCCC1)[nH]c1ccnc(O)c12 [Compound 97, 8-methoxy-7-(3-(pyrrolidin-1-yl)propoxy)-5H-pyrido[4,3-b]indol-1-ol trifluoroacetate]"
9,61,"COc1cc2c(cc1OCCCN(C)C)[nH]c1ccnc(N(C)C)c12 [Compound 93, 7-[3-(dimethylamino)propoxy)-8-methoxy-N,N-dimethyl-5H-pyrido[4,3-b]indol-1-amine hydrochloride]"
10,54,"COc1cc2c3cnccc3n(C)c2cc1OCCCN1CCCC1 [Compound 94, 1-[3-({8-methoxy-5-methyl-5H-pyrido[4,3-b]indol-7-yl}oxy)propyl]pyrrolidine hydrochloride]"
11,22,"COc1cc2c(cc1OCCCN1CCCC1)[nH]c1ccnc(-c3cn[nH]c3)c12 [Compound 81, 4-[8-methoxy-7-[3-(pyrrolidin-1-yl)propoxy]-5H-pyrido[4,3-b]indol-1-yl]-1H-pyrazole hydrochloride]"
12,6.7,"COc1cc2c(cc1OCCCN1CCCC1)[nH]c1ccnc(OC3CCNC3)c12 (stereo not drawn) [Compound 74, 3-({8-methoxy-7-[3-(pyrrolidin-1-yl)propoxy]-5H-pyrido[4,3-b]indol-1-yl}oxy)pyrrolidine bis(2,2,2-trifluoroacetate)]"
13,4.5,"COc1cc2c(cc1OCCCN1CCCC1)[nH]c1ccnc(CO)c12 [Compound 82, 8-methoxy-7-[3-(pyrrolidin-1-yl)propoxy]-5H-pyrido[4,3-b]indol-1-yl]methanol trifluoroacetate]"
